Experimental data: patent US20240116985A1, “STAPLED PEPTIDES AND METHODS THEREOF” (priority 2020, published 2024)

What follows are compounds tested against T1, full-length beta-Catenin (Uniprot ID P35222) (Homo sapiens, UniProt P35222) (assay: Fluorescence polarization IC50 (beta-catenin / 5FAM-TCF4 10-53 competition)). Conditions: fluorescence polarization; read-out: beta-Catenin FP IC50.
T1 construct: 10 nM full-length beta-Catenin (Uniprot ID P35222)
T1 sequence (P35222 1-781): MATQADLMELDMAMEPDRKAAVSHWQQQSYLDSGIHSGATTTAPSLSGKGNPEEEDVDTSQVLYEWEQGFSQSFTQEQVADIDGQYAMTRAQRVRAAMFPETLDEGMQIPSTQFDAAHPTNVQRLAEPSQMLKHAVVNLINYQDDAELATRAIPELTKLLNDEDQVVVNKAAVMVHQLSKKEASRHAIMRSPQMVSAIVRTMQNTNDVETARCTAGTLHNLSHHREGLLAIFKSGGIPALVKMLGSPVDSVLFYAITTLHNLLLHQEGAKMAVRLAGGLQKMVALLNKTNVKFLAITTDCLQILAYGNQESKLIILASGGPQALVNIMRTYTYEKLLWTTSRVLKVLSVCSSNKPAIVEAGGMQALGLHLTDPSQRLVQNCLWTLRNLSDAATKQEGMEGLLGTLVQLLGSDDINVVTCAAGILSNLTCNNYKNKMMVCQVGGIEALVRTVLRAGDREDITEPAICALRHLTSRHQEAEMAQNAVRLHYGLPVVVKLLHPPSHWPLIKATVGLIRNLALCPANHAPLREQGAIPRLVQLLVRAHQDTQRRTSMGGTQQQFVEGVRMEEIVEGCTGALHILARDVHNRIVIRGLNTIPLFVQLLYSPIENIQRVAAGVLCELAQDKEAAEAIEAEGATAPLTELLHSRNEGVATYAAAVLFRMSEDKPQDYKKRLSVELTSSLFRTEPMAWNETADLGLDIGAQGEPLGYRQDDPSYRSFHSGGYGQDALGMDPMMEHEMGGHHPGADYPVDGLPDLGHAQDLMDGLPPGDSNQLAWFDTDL
Type: binding

IC50	Compound
1120 nM	CC(C)C[C@H](NC(=O)[C@]12CCN(C1)C(=O)OCCCCCCCCC1(CCCCCCCCC(=O)N3CCC[C@@]3(C)C(=O)N[C@@H](CC(=O)O)C(=O)N1)C(=O)N[C@@H](C)C(=O)N[C@@H](CC(=O)O)C(=O)N[C@@H](Cc1cccc(C(=O)O)c1)C(=O)N[C@@H](C)C(=O)N[C@@H](C)C(=O)N[C@@H](Cc1ccccc1)C(=O)N2)C(=O)N[C@@H](Cc1ccsc1)C(=O)N[C@@H](Cc1csc2ccccc12)C(=O)N[C@@H](CCC(N)=O)C(N)=O (stereo partly drawn) [I-2604, 5hexenyl-MePro-Asp-B5-Ala-Asp-3COOHF-Ala-Ala-Phe-PyrS2-Leu-3Thi-BztA-Gln-NH2]
1560 nM	CC(=O)N1CCC[C@]12CC=CCCCC1(CCCC=CCCCOC(=O)N3CC[C@@](C(=O)N[C@@H](Cc4ccccc4)C(=O)N[C@@H](Cc4csc5ccccc45)C(=O)N[C@@H](CCO)C(N)=O)(C3)NC(=O)[C@H](CC(N)=O)NC(=O)[C@H](Cc3ccccc3)NC(=O)[C@H](CO)NC(=O)[C@H](CCCCNC(C)C)NC(=O)[C@H](CCC(N)=O)NC(=O)[C@H](CC(=O)O)NC1=O)NC(=O)[C@H](CC1CCCCC1)NC(=O)[C@H](CC(N)=O)NC2=O (stereo partly drawn) [I-1931, Ac-PL3-Asn-Cha-B5-Asp-Gln-iPrLys-Ser-Phe-Asn-PyrS2-Phe-BztA-Hse-NH2]
255 nM	CC(=O)N1CCC[C@]12CC=CCCCC1(CCCC=CCCCOC(=O)N3CC[C@@](C(=O)N[C@@H](Cc4ccsc4)C(=O)N[C@@H](Cc4csc5ccccc45)C(=O)N[C@@H](CCC(N)=O)C(N)=O)(C3)NC(=O)[C@H](CC(N)=O)NC(=O)[C@H](Cc3ccccc3)NC(=O)[C@H](C)NC(=O)[C@H](C)NC(=O)[C@H]([C@@H](C)O)NC(=O)[C@H](CC(N)=O)NC1=O)NC(=O)[C@H](CC1CCCCC1)NC(=O)[C@H](CC(=O)O)NC2=O (stereo partly drawn) [I-1885, Ac-PL3-Asp-Cha-B5-Asn-Thr-Ala-Ala-Phe-Asn-PyrS2-3Thi-BztA-Gln-NH2]
4940 nM	CC(=O)N1CCC[C@]12CC=CCCCC1(CCCC=CCCCOC(=O)N3CC[C@@](C(=O)N[C@@H](Cc4ccccc4Cl)C(=O)N[C@@H](Cc4csc5ccccc45)C(=O)N[C@@H](CCC(N)=O)C(N)=O)(C3)NC(=O)[C@H](CC(N)=O)NC(=O)[C@H](Cc3ccccc3)NC(=O)[C@H](C)NC(=O)[C@H](C)NC(=O)[C@H]([C@@H](C)O)NC(=O)[C@H](CC(N)=O)NC1=O)NC(=O)[C@H](CC(C)(C)C)NC(=O)[C@H](CC(=O)O)NC2=O (stereo partly drawn) [I-1999, Ac-PL3-Asp-Npg-B5-Asn-Thr-Ala-Ala-Phe-Asn-PyrS2-2C1F-BztA-Gln-NH2]
1760 nM	CC(=O)N1CCC[C@]12CC=CCCCC1(CCCC=CCCCOC(=O)N3CC[C@@](C(=O)N[C@@H](Cc4ccccc4)C(=O)N[C@@H](Cc4csc5ccccc45)C(=O)N[C@@H](CCC(N)=O)C(N)=O)(C3)NC(=O)[C@H]([C@@H](C)O)NC(=O)[C@H](Cc3ccccc3)NC(=O)[C@H](C)NC(=O)[C@H](C)NC(=O)[C@H](Cc3c[nH]cn3)NC(=O)[C@H](CC(=O)O)NC1=O)NC(=O)[C@H](CC(C)(C)C)NC(=O)[C@H](CCO)NC2=O (stereo partly drawn) [I-2438, Ac-PL3-Hse-Npg-B5-Asp-His-Ala-Ala-Phe-Thr-PyrS2-Phe-BztA-Gln-NH2]
305 nM	CC(=O)N1CCC[C@]12CC=CCCCC1(CCCC=CCCCOC(=O)N3CC[C@@](C(=O)N[C@@H](Cc4ccsc4)C(=O)N[C@@H](Cc4csc5ccccc45)C(=O)N[C@@H](CCC(N)=O)C(N)=O)(C3)NC(=O)[C@H](CC(C)C)NC(=O)[C@H](Cc3ccccc3)NC(=O)[C@H](C)NC(=O)[C@H](C)NC(=O)[C@H](CC(=O)O)NC(=O)[C@H](CC(=O)O)NC1=O)NC(=O)[C@H](CC(C)(C)C)NC(=O)[C@H](CCC(N)=O)NC2=O (stereo partly drawn) [I-1225, Ac-PL3-Gln-Npg-B5-Asp-Asp-Ala-Ala-Phe-Leu-PyrS2-3Thi-BztA-Gln-NH2]
7 nM	CC(=O)N1CCC[C@]12CC=CCCCC1(CCCC=CCCCOC(=O)N3CC[C@@](C(=O)N[C@@H](Cc4ccsc4)C(=O)N[C@@H](Cc4csc5ccccc45)C(=O)N[C@@H](CCC(N)=O)C(N)=O)(C3)NC(=O)[C@H](CC(N)=O)NC(=O)[C@H](Cc3ccccc3)NC(=O)[C@H](C)NC(=O)[C@H](C)NC(=O)[C@H](Cc3cccc(C(=O)O)c3)NC(=O)[C@H](CC(N)=O)NC1=O)NC(=O)[C@H](CC(C)(C)C)NC(=O)[C@H](CC(=O)O)NC2=O (stereo partly drawn) [I-2335, Ac-PL3-Asp-Npg-B5-Asn-3COOHF-Ala-Ala-Phe-Asn-PyrS2-3Thi-BztA-Gln-NH2]
757 nM	CC(=O)N1CCC[C@]12CC=CCCCC1(CCCC=CCCCOC(=O)N3CC[C@@](C(=O)N[C@@H](Cc4ccccc4)C(=O)N[C@@H](Cc4csc5ccccc45)C(=O)N[C@@H](CCCCN)C(N)=O)(C3)NC(=O)[C@H](CC(C)C)NC(=O)[C@H](Cc3ccccc3)NC(=O)[C@H](C)NC(=O)[C@H](CCCN3CCOCC3)NC(=O)[C@H](CCC(N)=O)NC(=O)[C@H](CC(=O)O)NC1=O)NC(=O)[C@H](CC1CCCCC1)NC(=O)[C@H](CC(N)=O)NC2=O (stereo partly drawn) [I-2427, Ac-PL3-Asn-Cha-B5-Asp-Gln-MorphNva-Ala-Phe-Leu-PyrS2-Phe-BztA-Lys-NH2]
475 nM	CC(=O)N1CCC[C@]12CC=CCCC1(CCC=CCCCOC(=O)N3CC[C@@](C(=O)N[C@@H](Cc4ccsc4)C(=O)N[C@@H](Cc4csc5ccccc45)C(=O)N[C@@H](CCC(N)=O)C(N)=O)(C3)NC(=O)[C@H](CC(C)C)NC(=O)[C@H](Cc3ccccc3)NC(=O)[C@H](C)NC(=O)[C@H](C)NC(=O)[C@H](CC(=O)O)NC(=O)[C@H](CC(=O)O)NC1=O)NC(=O)[C@H](CC(C)(C)C)NC(=O)[C@H](CC(=O)O)NC2=O (stereo partly drawn) [I-1971, Ac-PL3-Asp-Npg-B4-Asp-Asp-Ala-Ala-Phe-Leu-PyrS2-3Thi-BztA-Gln-NH2]
227 nM	CC(=O)N1CCC[C@]12CC=CCCCC1(CCCC=CCCCOC(=O)N3CC[C@@](C(=O)N[C@@H](Cc4ccsc4)C(=O)N[C@@H](Cc4csc5ccccc45)C(=O)N[C@@H](CCC(N)=O)C(N)=O)(C3)NC(=O)[C@H](CC(N)=O)NC(=O)[C@H](Cc3ccccc3)NC(=O)[C@H](C)NC(=O)[C@H](CCCCNC(C)C)NC(=O)[C@H]([C@@H](C)O)NC(=O)[C@H](CC(N)=O)NC1=O)NC(=O)[C@H](CC(C)(C)C)NC(=O)[C@H](CC(=O)O)NC2=O (stereo partly drawn) [I-2004, Ac-PL3-Asp-Npg-B5-Asn-Thr-iPrLys-Ala-Phe-Asn-PyrS2-3Thi-BztA-Gln-NH2]
47.5 nM	CC(=O)N1CCC[C@]12CC=CCCCC1(CCCC=CCCCCCC[C@@](C)(C(=O)N[C@@H](Cc3ccsc3)C(=O)N[C@@H](Cc3csc4ccccc34)C(=O)N[C@@H](CCC(N)=O)C(N)=O)NC(=O)[C@H](CC(N)=O)NC(=O)[C@H](Cc3ccccc3)NC(=O)[C@H](C)NC(=O)[C@H](C)NC(=O)[C@H](CN(CC(=O)O)Cc3c(F)c(F)c(F)c(F)c3F)NC(=O)[C@H](CC(=O)O)NC1=O)NC(=O)[C@H](CC(C)(C)C)NC(=O)[C@H](CC(=O)O)NC2=O (stereo partly drawn) [I-1624, Ac-PL3-Asp-Npg-B5-Asp-[Pfbn]GA-Ala-Ala-Phe-Asn-S8-3Thi-BztA-Gln-NH2]
2850 nM	CC(=O)N1CCC[C@]12CC=CCCCC1(CCCC=CCCCOC(=O)N3CC[C@@](C(=O)N[C@@H](Cc4ccccc4)C(=O)N[C@@H](Cc4csc5ccccc45)C(=O)N[C@@H](CCC(N)=O)C(N)=O)(C3)NC(=O)[C@H](CC(C)C)NC(=O)[C@H](Cc3ccccc3)NC(=O)[C@H](C)NC(=O)[C@H](CCCCNC(C)C)NC(=O)[C@H](Cc3cccc(C(N)=O)c3)NC(=O)[C@H](CC(=O)O)NC1=O)NC(=O)[C@H](CC(C)(C)C)NC(=O)[C@H](CC(N)=O)NC2=O (stereo partly drawn) [I-1592, Ac-PL3-Asn-Npg-B5-Asp-3cbmf-iPrLys-Ala-Phe-Leu-PyrS2-Phe-BztA-Gln-NH2]

Same assay, conditions: read-out: beta-Catenin FP IC50

IC50	Compound
368 nM	CC(=O)N1CCC[C@]12CC=CCCCC1(CCCC=CCCCOC(=O)N3CC[C@@](C(=O)N[C@@H](Cc4ccccc4Cl)C(=O)N[C@@H](Cc4csc5ccccc45)C(=O)N4CCC[C@H]4CO)(C3)NC(=O)[C@H](CC(N)=O)NC(=O)[C@H](Cc3ccccc3)NC(=O)[C@H](C)NC(=O)[C@H](C)NC(=O)[C@H](CC(=O)O)NC(=O)[C@H](CC(=O)O)NC1=O)NC(=O)[C@H](CC(C)(C)C)NC(=O)[C@H](CC(=O)O)NC2=O (stereo partly drawn) [I-1084, Ac-PL3-Asp-Npg-B5-Asp-Asp-Ala-Ala-Phe-Asn-PyrS2-2C1F-BztA-Proo1]

Same assay, conditions: read-out: beta-Catenin FP IC50; fluorescence polarization

Compound	IC50
CC(=O)N1CCC[C@]12CC=CCCCC1(CCCC=CCCCOC(=O)N3CC[C@@](C(=O)N[C@@H](Cc4ccsc4)C(=O)N[C@@H](Cc4csc5ccccc45)C(=O)N[C@@H](CCC(N)=O)C(N)=O)(C3)NC(=O)[C@H](CC(C)C)NC(=O)[C@H](Cc3ccccc3)NC(=O)[C@H](C)NC(=O)[C@H](C)NC(=O)[C@H](CCC(=O)OCCSSc3ccccc3)NC(=O)[C@H](CC(=O)O)NC1=O)NC(=O)[C@H](CC(C)(C)C)NC(=O)[C@H](CC(=O)O)NC2=O (stereo partly drawn) [I-1957, Ac-PL3-Asp-Npg-B5-Asp-[EtSSPh]GluE-Ala-Ala-Phe-Leu-PyrS2-3Thi-BztA-Gln-NH2]	567 nM
